The values below come from patent US20220324835A1 (Nurix Therapeutics, Inc., priority 2018, published 2022).

Some results are limits rather than exact numbers.

Test [1] concerns the target Cbl-b (residues 36-427) (Homo sapiens, UniProt Q13191). Kind of test: Cbl-b binding assay (SPR, Biacore T200). Particulars: 20° C., 1:1 binding model. The method, boiled down: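 NeutrAvidin capture chip, 20° C; 50 s injections at 50 μl/min, 90-180 s dissociation; 0.3 M NaCl regeneration. Asterisked column: 50 mM NaCl buffer and 30 nM Src kinase in place of 100 mM NaCl and 60 nM Src kinase. 1:1 fit.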

Test [2] deals with T1, Cbl-b (Homo sapiens, UniProt Q13191). Description: Cbl-b inhibition assay (Cbl-b activity assay, FRET, Biological Example 1; 100 mM NaCl, 60 nM Src kinase). Type of test: biochemical. Particulars: upper bound stated in text lists; read-out: IC50 values in the Cbl-b inhibition assay of Biological Example 1. The method, boiled down:
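Steps: Src kinase phosphorylates N-terminal biotinylated Avi-tagged Cbl-b; phosphorylated Cbl-b binds Bodipy-fluorescein ubiquitin-loaded UbcH5B; streptavidin-terbium on Cbl-b sits close to the fluorescein label, producing FRET. Inhibitors block UbcH5B-Ub binding.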

Test [3] addresses T1, Cbl-b. Kind of test: Cbl-b activity assay (Cbl-b inhibition assay), TR-FRET of Cbl-b interaction with UbcH5B-Ub. Type of test: biochemical. The method, boiled down: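 Compound-treated Cbl-b was incubated 1.5 h with Src kinase (60 nM final; 30 nM for asterisked values, which also used 50 mM instead of 100 mM NaCl), 1 mM ATP and 5 mM MgCl2. Binding to fluorescent Ub-loaded UbcH5B (C85K mutant) was then read by TR-FRET after 1 h more.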

Setting [4] is: assay buffer with 100 mM NaCl, 60 nM Src kinase, read-out: Cbl-b activity IC50.
Setting [5] is: * assay buffer containing 50 mM NaCl instead of 100 mM NaCl and 30 nM Src kinase instead of 60 nM, read-out: Cbl-b activity IC50 (μM)*.

T1 sequence (Q13191 36-427): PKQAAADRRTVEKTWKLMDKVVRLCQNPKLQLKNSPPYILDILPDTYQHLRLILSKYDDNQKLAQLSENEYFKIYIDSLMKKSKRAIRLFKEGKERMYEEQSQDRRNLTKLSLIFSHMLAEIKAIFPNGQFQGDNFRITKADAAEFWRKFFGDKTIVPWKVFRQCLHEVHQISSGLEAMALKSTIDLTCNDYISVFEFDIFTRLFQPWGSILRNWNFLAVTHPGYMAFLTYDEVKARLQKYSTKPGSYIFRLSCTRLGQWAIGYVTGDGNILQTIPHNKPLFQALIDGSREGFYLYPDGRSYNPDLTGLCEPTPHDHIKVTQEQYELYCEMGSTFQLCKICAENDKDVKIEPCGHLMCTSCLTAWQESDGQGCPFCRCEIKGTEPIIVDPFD
Cbl-b (residues 36-427), sequence (Q13191 36-427): as above

In the case of `C[C@H](Sc1nncn1C)c1ccnc(NC(=O)c2cc(C(F)(F)F)c(Cl)cn2)c1` [Compound 114, (S)-5-chloro-N-(4-(1-((4-methyl-4H-1,2,4-triazol-3-yl)thio)ethyl)pyridin-2-yl)-4-(trifluoromethyl)picolinamide], the Kd in test [1] is > 10 µM. The IC50 is ≤ 10 µM in test [2] and 3 to 10 µM in test [3] (setting [4]).

In test [1], `C[C@H](Sc1nncn1C)c1ccnc(NC(=O)c2cccc(S(F)(F)(F)(F)F)c2)c1` [Compound 116, N-[4-[(1S)-1-[(4-methyl-1,2,4-triazol-3-yl)sulfanyl]ethyl]-2-pyridyl]-3-(pentafluoro-λ^6-sulfanyl)benzamide] yielded a Kd of 3 to 10 µM. Besides, the IC50 in test [2] was ≤ 10 µM; in test [3] (setting [4]) it was 3 to 10 µM.

For `C[C@H](Sc1nncn1C)c1ccnc(NC(=O)c2cccc(C3CC3)n2)c1` [Compound 117, 6-cyclopropyl-N-[4-[(1S)-1-[(4-methyl-1,2,4-triazol-3-yl)sulfanyl]ethyl]-2-pyridyl]pyridine-2-carboxamide], the equilibrium dissociation constant (Kd) in test [1] is 3 to 10 µM. In addition, the half-inhibitory concentration (IC50) is ≤ 10 µM in test [2] and 1 to 3 µM in test [3] (setting [4]).

As to `C[C@H](Sc1nncn1C)c1ccnc(NC(=O)c2nc3ccccc3s2)c1` [Compound 121, N-[4-[(1S)-1-[(4-methyl-1,2,4-triazol-3-yl)sulfanyl]ethyl]-2-pyridyl]-1,3-benzothiazole-2-carboxamide], the Kd in test [1] is 3 to 10 µM. The IC50 was ≤ 10 µM in test [2] and 3 to 10 µM in test [3] (setting [4]).

For `C[C@H](Sc1nncn1C)c1ccnc(NC(=O)c2cccc(OC(F)(F)F)n2)c1` [Compound 122, (S)-N-(4-(1-((4-methyl-4H-1,2,4-triazol-3-yl)thio)ethyl)pyridin-2-yl)-6-(trifluoromethoxy)picolinamide], the Kd in test [1] lay in the range of 1 to 3 µM. For the same compound, the IC50 is ≤ 10 µM in test [2] and 1 to 3 µM in test [3] (setting [4]).

Take `CCc1cccc(C(=O)Nc2cc([C@H](C)Sc3nncn3C)ccn2)n1` [Compound 123, (S)-6-ethyl-N-(4-(1-((4-methyl-4H-1,2,4-triazol-3-yl)thio)ethyl)pyridin-2-yl)picolinamide]: the Kd in test [1] fell in the range of 3 to 10 µM. Also, the IC50 is ≤ 10 µM in test [2] and 1 to 3 µM in test [3] (setting [4]).

In turn, `C[C@H](Sc1nncn1C)c1ccnc(NC(=O)c2cccc(Cl)n2)c1` [Compound 124, 6-chloro-N-[4-[(LV)-1-[(4-methyl-1,2,4-triazol-3-yl)sulfanyl]ethyl]-2-pyridyl]pyridine-2-carboxamide] displayed a dissociation constant Kd in test [1] of 3 to 10 µM. For the same compound, the figures for the IC50 in test [2] and in test [3] (setting [4]) were ≤ 10 µM and 1 to 3 µM, respectively.

`COc1nc(C(=O)Nc2cc([C@H](C)Sc3nncn3C)ccn2)ccc1Cl` [Compound 125, (S)-5-chloro-6-methoxy-N-(4-(1-((4-methyl-4H-1,2,4-triazol-3-yl)thio)ethyl)pyridin-2-yl)picolinamide]: the Kd in test [1] lay in the range of 3 to 10 µM. The IC50 is ≤ 10 µM in test [2] and 1 to 3 µM in test [3] (setting [4]).

Compound `C[C@H](Sc1nncn1C)c1ccnc(NC(=O)c2cc(N3CC[C@H](O)C3)cc(C(F)(F)F)n2)c1` [Compound 126, 4-[(3S)-3-hydroxypyrrolidin-1-yl]-N-[4-[(1S)-1-[(4-methyl-1,2,4-triazol-3-yl)sulfanyl]ethyl]-2-pyridyl]-6-(trifluoromethyl)pyridine-2-carboxamide] registered a Kd in test [1] of 3 to 10 µM. The IC50 in test [2] was ≤ 10 µM; in test [3] (setting [4]), 1 to 3 µM.

Regarding `C=CCC(Sc1nncn1C)c1cccc(NC(=O)c2ccc3ccccc3n2)c1` (centres unmarked) [Compound 134, N-[3-[1-[(4-methyl-1,2,4-triazol-3-yl)sulfanyl]but-3-enyl]phenyl]quinoline-2-carboxamide], the equilibrium dissociation constant (Kd) in test [1] was > 10 µM. Besides, the IC50 in test [2] was ≤ 10 µM; in test [3] (setting [5]), 1 to 3 µM; in test [3] (setting [4]), 1 to 3 µM.

As for `C=CCC(Sc1nncn1C)c1cccc(NC(=O)c2cc3ccccc3cn2)c1` (centres unmarked) [Compound 135, N-[3-[1-[(4-methyl-1,2,4-triazol-3-yl)sulfanyl]but-3-enyl]phenyl]isoquinoline-3-carboxamide], the equilibrium dissociation constant (Kd) in test [1] is > 10 µM. Moreover, the IC50 in test [2] is ≤ 10 µM; in test [3] (setting [5]) it was 3 to 10 µM; in test [3] (setting [4]), 1 to 3 µM.

Consider `C[C@H](Sc1nncn1C)c1cccc(NC(=O)c2cc(C(=O)N3CCCC3)ccn2)c1` [Compound 138, (S)-N-(3-(1-((4-methyl-4H-1,2,4-triazol-3-yl)thio)ethyl)phenyl)-4-(pyrrolidine-1-carbonyl)picolinamide], for which the equilibrium dissociation constant (Kd) in test [1] was > 10 µM. Also, the IC50 in test [2] is ≤ 10 µM; in test [3] (setting [4]), 3 to 10 µM.

As for `C[C@H](Sc1nncn1C)c1cccc(NC(=O)c2cc(C(=O)N3CC[C@@H](O)C3)ccn2)c1` [Compound 139, 4-((R)-3-hydroxypyrrolidine-1-carbonyl)-N-(3-((S)-1-((4-methyl-4H-1,2,4-triazol-3-yl)thio)ethyl)phenyl)picolinamide], the Kd in test [1] lay within 3 to 10 µM. Further, the IC50 in test [2] is ≤ 10 µM; in test [3] (setting [4]) it was 3 to 10 µM.

The compound `CO[C@@H]1CCN(C(=O)c2ccnc(C(=O)Nc3cccc([C@H](C)Sc4nncn4C)c3)c2)C1` [Compound 141, 4-((R)-3-methoxypyrrolidine-1-carbonyl)-N-(3-((S)-1-((4-methyl-4H-1,2,4-triazol-3-yl)thio)ethyl)phenyl)picolinamide] gave a Kd in test [1] of 3 to 10 µM. The concentration for half-maximal inhibition (IC50) is ≤ 10 µM in test [2] and 3 to 10 µM in test [3] (setting [4]).

Turning to `C[C@H](Sc1nncn1C)c1cccc(NC(=O)c2cc(C(=O)N3CCC3)ccn2)c1` [Compound 143, (S)-4-(azetidine-1-carbonyl)-N-(3-(1-((4-methyl-4H-1,2,4-triazol-3-yl)thio)ethyl)phenyl)picolinamide], the Kd in test [1] was 3 to 10 µM. Also, the results for the half-maximal inhibitory concentration (IC50) in test [2] and in test [3] (setting [4]) were ≤ 10 µM and 3 to 10 µM, respectively.

For `C[C@H](Sc1nncn1C)c1cccc(NC(=O)c2cc(C(=O)N3CCCCC3)ccn2)c1` [Compound 144, (S)-N-(3-(1-((4-methyl-4H-1,2,4-triazol-3-yl)thio)ethyl)phenyl)-4-(piperidine-1-carbonyl)picolinamide], the Kd in test [1] was 3 to 10 µM. The values for the concentration for half-maximal inhibition (IC50) in test [2] and in test [3] (setting [4]) were ≤ 10 µM and 3 to 10 µM, respectively.

The compound `C[C@H](Sc1nncn1C)c1cccc(NC(=O)c2cc(C(=O)N3CCC(O)CC3)ccn2)c1` [Compound 145, (S)-4-(4-hydroxypiperidine-1-carbonyl)-N-(3-(1-((4-methyl-4H-1,2,4-triazol-3-yl)thio)ethyl)phenyl)picolinamide] gave an equilibrium dissociation constant (Kd) in test [1] of 3 to 10 µM. Besides, the half-inhibitory concentration (IC50) is ≤ 10 µM in test [2] and 1 to 3 µM in test [3] (setting [4]).

With `C[C@H](Sc1nncn1C)c1cccc(NC(=O)c2cc(C(=O)N3CC[C@@H](N)C3)ccn2)c1` [Compound 146, 4-((R)-3-aminopyrrolidine-1-carbonyl)-N-(3-((S)-1-((4-methyl-4H-1,2,4-triazol-3-yl)thio)ethyl)phenyl)picolinamide], in test [1], the Kd lay within 3 to 10 µM. The IC50 is ≤ 10 µM in test [2] and 3 to 10 µM in test [3] (setting [4]).

The compound `C[C@H](Sc1nncn1C)c1cccc(NC(=O)c2cc(C(=O)N3CC[C@H](N)C3)ccn2)c1` [Compound 147, 4-((S)-3-aminopyrrolidine-1-carbonyl)-N-(3-((S)-1-(4-methyl-4H-1,2,4-triazol-3-ylthio)ethyl)phenyl)picolinamide] had a dissociation constant Kd in test [1] of 3 to 10 µM. Besides, the half-inhibitory concentration (IC50) in test [2] was ≤ 10 µM; in test [3] (setting [4]), 3 to 10 µM.
